Source: patent US20260193227A1, “THERAPEUTIC COMPOUNDS AND METHODS” (UNIVERSITY OF IOWA RESEARCH FOUNDATION, priority 2022, published 2026)

How the values were obtained:
BRCA2-depleted cells = details: Hengel et al. 2016; cited from earlier work
RAD52-ssDNA interaction [1] = target: T1, RAD52-ssDNA interaction (Homo sapiens, UniProt P43351); details: Hengel et al. 2016; cited from earlier work
T1 construct: 6xHis; made in house
T1 sequence (P43351 1-418): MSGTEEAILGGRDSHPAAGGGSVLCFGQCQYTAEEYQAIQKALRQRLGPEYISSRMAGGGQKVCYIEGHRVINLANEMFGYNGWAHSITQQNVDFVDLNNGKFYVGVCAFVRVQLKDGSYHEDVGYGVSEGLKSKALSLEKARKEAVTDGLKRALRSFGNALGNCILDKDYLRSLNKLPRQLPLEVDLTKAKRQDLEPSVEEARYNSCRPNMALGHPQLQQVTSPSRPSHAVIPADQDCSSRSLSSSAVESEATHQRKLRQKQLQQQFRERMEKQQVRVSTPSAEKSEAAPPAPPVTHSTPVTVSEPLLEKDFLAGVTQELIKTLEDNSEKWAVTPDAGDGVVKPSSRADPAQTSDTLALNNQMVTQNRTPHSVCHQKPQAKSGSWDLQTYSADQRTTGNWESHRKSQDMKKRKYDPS

EUFA423F HA cells [2] = test: CellTiter-Glo cell viability, BRCA2-complemented cells; type: cell-based, human; details: yes/no
Description: (§1) Cell lines: EUFA423F cells that are derived from a Fanconi Anemia patient with complementation group D1 and have biallelic mutations (7691 insAT and 9900 insA) in BRCA2 that result in two different truncated forms of BRCA2 (Howlett N G, et al., Science (New York, NY). 2002; 297(5581):606-9) and its counterpart complemented with expression vector for full-length BRCA2 (EUFA HA) were a generous gift from Dr. Simon Powell, Molecular Biology Program, Radiation Oncology, Sloan-Kettering Cancer Center, New York, NY).
(§2) Cell proliferation assay: Selective toxicity of the compounds towards human BRCA2 deficient cells was tested in EUFA423F and its complement EUFA423F HA using CellTiter-Glo® Luminescent Cell Viability Assay (Promega, Madison, WI). The cell lines were maintained in DMEM (Gibco/ThermoFisher Scientific, Waltham, MA) supplemented with 10% FBS and 10 mM HEPES (Gibco/ThermoFisher Scientific, Waltham, MA). EUFA423F HA cells were routinely supplemented with G418 in order to maintain the BRCA2 expression plasmid. Both cell lines were seeded in sterile tissue culture treated, white opaque 384-well plates (Perkin Elmer Inc., Waltham, MA) 3000 cells/well for EUFA423F HA and 2500 cells/well for EUFA423F) and allowed to adhere for 24 hours. Compounds dissolved in DMSO were added in the concentration range of 0-100 μM. Controls were treated with equivalent DMSO volumes. The cells were treated with compounds for 72 hours (to ensure that all cells experienced at least two S-phases). Post treatment, the cells were washed, treated with the CellTiter-Glo® reagent was added and the plate was analyzed as using a Gen5 (ver2.1) luminosity plate reader. The luminescence that reports on ATP generation by the surviving cells was normalized for the DMSO treated control as 100%. The normalized luminescence (average±standard deviation for at least three independent measurements obtained with different cell passages) was plotted in GraphPad Prism as a function of compound concentration. Clonogenic Survival: EUFA423F and EUFA423F HA cells were seeded in a 96 well plate. Compounds dissolved in DMSO were added to final concentrations of 0, 50, and 100 μM for the compound of Example 8 and the compound of Example 1, and 0, 5, and 10 μM for the compounds of Examples 2-7. The cells were treated with compounds for 72 hours. Post treatment, cell cultures were harvested by collecting all non-adherent cells in the well, trypsinization of all adherent cells, combining, pelleting and then resuspending in fresh media. Cultures treated with DMSO only were subsequently counted using a hemocytometer and plated at a density of 2000, 200 and 20 cells per well in 6-well culture plates, equal volumes of cultures were plated each inhibitor concentration. Each treatment and cell density conditions for both cell lines were plated in triplicate. After expanding the colonies for a period of 8 days, cultures were fixed with a solution of 70% ethanol and crystal violet for clonogenic survival analysis. Pictures of individual wells were taken using GelCount (Version 1.3.0.4) by Oxford Optronix (Abingdon UK). A colony had to contain at least 50 cells to be counted. The number of surviving colonies following treatment are presented as a percentage of number of colonies in the experiment where the cells were treated with DMSO only.

EUFA423F cells [3] = test: CellTiter-Glo cell viability, BRCA2-mutated cells; type: cell-based, human; details: for toxicity towards EUFA423 cells: BRCA2-mutated cells, yes/no; for toxicity / selective toxicity towards BRCA2-mutated cells in cell viability assays: EUFA423F versus EUFA423F HA, CellTiter-Glo, 72 hours
Description: as §1, §2

RPA-ssDNA-RAD52 complex = target: T2, RPA-ssDNA-RAD52 complex (Homo sapiens, UniProt P43351); test: FRET-based inhibition of the RPA-ssDNA-RAD52 complex; type: binding; details: for IC50: value ± fitting error, N/A = no activity
T2 construct: 6xHis; made in house
T2 sequence (P43351 1-418): T1 sequence (P43351 1-418)
Procedure: (§3) Proteins: The 6×His-tagged human RAD52 proteins (wild type and mutants) and untagged human RPA were expressed and purified as previously described in (Hengel S R, eLife. 2016; 5; Grimme J M, et al., Nucleic Acids Res. 2010; 38(9):2917-30; and Henricksen L A, et al., The Journal of biological chemistry. 1994; 269(15):11121-32). RPA and RAD52 protein concentrations were determined by measuring absorbance at 280 nm using extinction coefficients of 88,830 M^−1 cm^−1 and 40,470 M^−1 cm^−1, respectively.
(§4) FRET-based DNA binding and inhibition assays: FRET-based that monitor the RAD52-ssDNA, RPA-ssDNA and RAD52-RPA-ssDNA binding were carried out as previously described (Hengel S R, eLife. 2016; 5; Grimme J M, et al., Nucleic Acids Res. 2010; 38(9):2917-30; and Grimme J M, Spies M. FRET-based assays to monitor DNA binding and annealing by Rad52 recombination mediator protein. Methods in molecular biology (Clifton, NJ). 2011; 745:463-83) using Cary Eclipse Spectrofluorimeter (Agilent) at 25° C., in 5 mm quartz cuvettes, and in buffer containing 30 mM Tris-Acetate (pH 7.5) and 1 mM DTT. Cy3 dye was excited at 530 nm and its emission was monitored at 565 nm. Emission of Cy5 acceptor fluorophore excited through the energy transfer from Cy3 donor is monitored at 660 nm simultaneously with emission of Cy3 dye. Both the excitation and the emission slits were set to 10 nm. All experiments were carried out using 1 nM (molecules) Cy3-dT30-Cy5 ssDNA. The optimal concentrations of the RAD52 (6 nM) and RPA (1 nM) proteins were selected by titrating the respective protein into 1 nM Cy3-dT30-Cy5 solution, and chosen based on the largest separation of the FRET values corresponding to the protein bound and free DNA.
(§5) The inhibition of the RAD52-ssDNA, RPA-ssDNA and RAD52-RPA-ssDNA complexes was evaluated by titrating each compound to the respective complex, measuring Cy3 and Cy5 fluorescence, and calculating FRET as previously described (Hengel, S. R., et al., eLife, 5).
(§6) Spectral properties of many compounds overlapped with the Cy3 and Cy5 fluorescence. To correct the calculated FRET values for the compound signal, the fluorogenic compounds were titrated into buffer and into solution of 1 nM Cy3-dT30-Cy5. For all tested compounds, the change in the signal in the Cy3 and Cy5 channels with and without Cy3/Cy5-labeled DNA present was the same. […] To account for the dye fluorescence, for each compound concentration, the apparent change in FRET of the ssDNA in the presence the compound was subtracted from the respective FRET signal of the RAD52-ssDNA, RPA-ssDNA or RAD52-ssDNA-RPA complex at the same inhibitor concentration. The IC50 values were calculated by fitting the corrected FRET data to the four-parameter dose response model using GraphPad Prism. All data are shown as average for at least three independent experiments ±standard deviation. The IC50 values are presented with their respective fitting error.

RAD52-ssDNA interaction [4] = target: T1, RAD52-ssDNA interaction; test: FRET-based inhibition of the RAD52-ssDNA interaction; type: binding; details: for selectivity towards RAD52 over RPA: in vitro FRET-based assays; for IC50: 6 nM RAD52, 1 nM Cy3-dT30-Cy5 ssDNA, 25° C., value ± fitting error
Procedure: as §3, §4, §5, §6

RPA-ssDNA interaction = target: T3, RPA-ssDNA interaction (Homo sapiens, UniProt P27694); test: FRET-based inhibition of the RPA-ssDNA interaction; type: binding; details: 1 nM RPA, 1 nM Cy3-dT30-Cy5 ssDNA; value ± fitting error; N/A = no activity
T3 construct: made in house
T3 sequence (P27694 whole entry): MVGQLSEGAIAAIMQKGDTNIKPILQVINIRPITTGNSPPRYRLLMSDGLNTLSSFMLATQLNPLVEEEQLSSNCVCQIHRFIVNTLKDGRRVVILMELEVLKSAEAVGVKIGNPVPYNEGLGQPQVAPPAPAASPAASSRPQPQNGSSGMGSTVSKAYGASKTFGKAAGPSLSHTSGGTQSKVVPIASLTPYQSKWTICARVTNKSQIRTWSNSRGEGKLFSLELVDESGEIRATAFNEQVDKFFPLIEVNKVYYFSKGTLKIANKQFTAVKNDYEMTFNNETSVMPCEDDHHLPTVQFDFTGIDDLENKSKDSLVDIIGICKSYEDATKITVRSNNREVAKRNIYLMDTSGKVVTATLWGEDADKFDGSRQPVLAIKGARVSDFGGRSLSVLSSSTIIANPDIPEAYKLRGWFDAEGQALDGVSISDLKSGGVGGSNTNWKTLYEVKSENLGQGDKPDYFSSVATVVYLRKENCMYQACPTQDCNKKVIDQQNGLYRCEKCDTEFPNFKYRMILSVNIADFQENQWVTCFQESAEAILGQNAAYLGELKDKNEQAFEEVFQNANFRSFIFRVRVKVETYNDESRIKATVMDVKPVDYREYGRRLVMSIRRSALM
T3 sequence (P15927 whole entry partner): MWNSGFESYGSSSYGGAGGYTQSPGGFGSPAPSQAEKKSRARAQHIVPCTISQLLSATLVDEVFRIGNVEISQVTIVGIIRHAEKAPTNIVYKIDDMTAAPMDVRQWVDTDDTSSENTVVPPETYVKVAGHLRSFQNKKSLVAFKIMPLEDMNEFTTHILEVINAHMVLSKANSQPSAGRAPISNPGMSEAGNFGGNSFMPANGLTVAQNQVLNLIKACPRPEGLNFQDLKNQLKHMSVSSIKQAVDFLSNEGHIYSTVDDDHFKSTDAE
T3 sequence (P35244 whole entry partner): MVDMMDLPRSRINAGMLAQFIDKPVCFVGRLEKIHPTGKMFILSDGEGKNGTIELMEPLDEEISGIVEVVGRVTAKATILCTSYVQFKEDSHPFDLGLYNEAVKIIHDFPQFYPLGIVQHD
Procedure: as §3, §4, §5, §6

[5] = Solubility in cell culture medium; type: physicochemical; details: for solubility: plasma or biological fluid
EUFA423F HA cells [6] = details: Clark et al. 2012; Howlett et al. 2002; cited from earlier work
EUFA423F cells [7] = details: Clark et al. 2012; cited from earlier work

Compound | toxicity towards EUFA423 HA (BRCA2-complemented cells) (EUFA423F HA cells [2]) | toxicity towards EUFA423 cells (EUFA423F cells [3]) | selectivity towards RAD52 over RPA (RAD52-ssDNA interaction [4]) | IC50 (RPA-ssDNA interaction) | toxicity / selective toxicity towards BRCA2-mutated cells in cell viability assays (EUFA423F cells [3]) | IC50 (RPA-ssDNA-RAD52 complex) | IC50 (RAD52-ssDNA interaction [4]) | further results
Oc1cc(O)c2c(c1)O[C@H](c1cc(O)c(O)c(O)c1)[C@H](O)C2 [EGC, epigallochatechin] |  |  |  |  |  |  |  | efficacy in BRCA2-depleted cells (BRCA2-depleted cells): effective; competition with ssDNA binding to RAD52 (RAD52-ssDNA interaction [1]): competed with ssDNA binding to RAD52
O=C(Cn1cc([N+](=O)[O-])cc(F)c1=O)c1c[nH]c2ccc(F)cc12 [Example 2] | no | yes | shows selectivity towards RAD52 over RPA |  |  |  |  | toxicity / selective toxicity towards BRCA2-mutated cells in cell viability assays (EUFA423F cells [3]; listed as Z58-54): selectively toxic to BRCA2-mutated cells; toxicity / selective toxicity towards BRCA2-mutated cells in cell viability assays (EUFA423F cells [3]; listed as Z5862216254): effective and specific in cell viability assays; effect on the RPA-ssDNA-RAD52 complex (RPA-ssDNA-RAD52 complex; FRET titration): unable to dislodge RAD52
Cc1cc([N+](=O)[O-])cn(CC(=O)c2c[nH]c3ccc(Cl)cc23)c1=O [Example 3] | no | yes | shows selectivity towards RAD52 over RPA | 15.9 ± 1.4 µM | selectively toxic to BRCA2-mutated cells | 7 ± 0.29 µM | 7970 ± 840 nM | solubility [5]: > 10 µM
Cc1ccn(CC(=O)c2c[nH]c3ccc(F)cc23)c(=O)c1[N+](=O)[O-] [Example 4] | no | yes | shows selectivity towards RAD52 over RPA |  | selectively toxic to BRCA2-mutated cells |  |  | solubility [5]: > 10 µM
O=C(Cn1cc([N+](=O)[O-])cc(Cl)c1=O)c1c[nH]c2ccc(F)cc12 [Example 5] | no | yes | shows selectivity towards RAD52 over RPA |  | selectively toxic to BRCA2-mutated cells |  |  | 
Cc1c([N+](=O)[O-])ccn(CC(=O)c2c[nH]c3ccc(Br)cc23)c1=O [Example 6] | no | no | shows selectivity towards RAD52 over RPA | 1.12 ± 0.13 µM | failed to inhibit both BRCA2-mutated and BRCA2-complemented cells | 0.76 ± 0.05 µM | 2020 ± 120 nM | solubility / aggregation in cell culture medium [5]: poorly soluble in cell culture medium
O=C(Cn1cc([N+](=O)[O-])cc(Br)c1=O)c1c[nH]c2ccc(Cl)cc12 [Example 7] | no | yes | shows selectivity towards RAD52 over RPA | 28.9 ± 4 µM | selectively toxic to BRCA2-mutated cells | 4.55 ± 0.16 µM | 2840 ± 320 nM | 
CO[C@@]12[C@H](COC(N)=O)C3=C(C(=O)C(C)=C(N)C3=O)N1C[C@@H]1N[C@@H]12 [mitomycin C] |  |  |  |  |  |  |  | sensitivity of the BRCA2-complemented (HA) cell line to the agent (EUFA423F HA cells [6]): resistant
C[C@]1(c2nc3c(C(N)=O)cccc3[nH]2)CCCN1 [veliparib] |  |  |  |  |  |  |  | sensitivity of EUFA423F cells to the agent (EUFA423F cells [7]): sensitive; sensitivity of the BRCA2-complemented (HA) cell line to the agent (EUFA423F HA cells [6]): resistant
